Measured values reported in patent US8163758B2 (Parion Sciences, Inc., priority 2006, dated 2012).

Tests used:
beta-adrenergic receptor = target: T1, beta-adrenergic receptor (Canis lupus familiaris, UniProt P54833); test: Beta agonist activity, anion secretion short circuit current in airway epithelial monolayers in Ussing chambers; assay type: cell-based, canine
T1 construct: endogenous in cells; host or cells: primary canine bronchial epithelial cells cultured at air-liquid interface
Protocol: To assess beta agonist activity the compounds of the present invention involves the determination of lumenal drug addition to promote airway epithelial anion currents measured under short circuit current (ISC) using airway epithelial monolayers mounted in Ussing chambers. Cells obtained from freshly excised human, dog, or sheep airways are seeded onto porous 0.4 micron Transwell® Permeable Supports (Corning), cultured at air-liquid interface (ALI) conditions in hormonally defined media, and assayed for anion secretion (ISC) while bathed in Krebs Bicarbonate Ringer (KBR) in Ussing chambers. All test drug additions are to the lumenal bath with approximately half-log dose additions (from 8×10^−10 M to 6.5×10^−5 M), and the cumulative change in ISC (excitation) recorded. All drugs are prepared in dimethyl sulfoxide as stock solutions at a concentration from 1×10^−1 to 1×10^−2 M and stored at −20° C. […] Before the start of the concentration-effect relationship 552-02 a potent sodium channel blocker was applied to the apical surface (1 μM) to eliminate changes in Isc caused by sodium absorption. All data from the voltage clamps are collected via a computer interface and analyzed off-line.
Concentration-effect relationships for all compounds are considered and analyzed Using GraphPad Prism version 3.00 for Windows, GraphPad Software, San Diego Calif. USA.

[1] = target: T2, epithelial sodium channel (ENaC) (Canis lupus familiaris, UniProt A0A8I3MKE6+A0A8I3Q679+Q95165); test: ENaC blocking activity, short circuit current in airway epithelial monolayers in Ussing chambers; assay type: cell-based; conditions: canine bronchial epithelia
T2 construct: endogenous in cells; host or cells: primary canine bronchial epithelial cells cultured at air-liquid interface
T2 sequence (A0A8I3Q679 1-649): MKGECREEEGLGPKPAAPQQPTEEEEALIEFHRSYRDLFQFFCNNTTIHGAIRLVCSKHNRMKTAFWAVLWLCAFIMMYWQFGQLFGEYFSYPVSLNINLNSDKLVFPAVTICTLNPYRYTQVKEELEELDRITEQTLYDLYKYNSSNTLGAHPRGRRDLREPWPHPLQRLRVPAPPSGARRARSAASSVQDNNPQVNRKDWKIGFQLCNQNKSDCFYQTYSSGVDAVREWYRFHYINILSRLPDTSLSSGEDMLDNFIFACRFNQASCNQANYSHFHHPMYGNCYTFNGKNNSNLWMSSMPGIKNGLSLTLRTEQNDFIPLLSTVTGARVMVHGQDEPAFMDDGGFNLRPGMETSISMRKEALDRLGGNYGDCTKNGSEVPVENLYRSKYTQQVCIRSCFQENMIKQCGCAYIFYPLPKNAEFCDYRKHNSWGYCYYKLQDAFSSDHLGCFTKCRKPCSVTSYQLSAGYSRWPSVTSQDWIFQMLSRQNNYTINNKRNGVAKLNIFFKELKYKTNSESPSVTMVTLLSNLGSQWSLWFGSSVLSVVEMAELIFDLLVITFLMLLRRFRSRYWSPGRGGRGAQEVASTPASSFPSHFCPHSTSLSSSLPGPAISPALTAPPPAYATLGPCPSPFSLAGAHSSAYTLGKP
T2 sequence (Q95165 1-641): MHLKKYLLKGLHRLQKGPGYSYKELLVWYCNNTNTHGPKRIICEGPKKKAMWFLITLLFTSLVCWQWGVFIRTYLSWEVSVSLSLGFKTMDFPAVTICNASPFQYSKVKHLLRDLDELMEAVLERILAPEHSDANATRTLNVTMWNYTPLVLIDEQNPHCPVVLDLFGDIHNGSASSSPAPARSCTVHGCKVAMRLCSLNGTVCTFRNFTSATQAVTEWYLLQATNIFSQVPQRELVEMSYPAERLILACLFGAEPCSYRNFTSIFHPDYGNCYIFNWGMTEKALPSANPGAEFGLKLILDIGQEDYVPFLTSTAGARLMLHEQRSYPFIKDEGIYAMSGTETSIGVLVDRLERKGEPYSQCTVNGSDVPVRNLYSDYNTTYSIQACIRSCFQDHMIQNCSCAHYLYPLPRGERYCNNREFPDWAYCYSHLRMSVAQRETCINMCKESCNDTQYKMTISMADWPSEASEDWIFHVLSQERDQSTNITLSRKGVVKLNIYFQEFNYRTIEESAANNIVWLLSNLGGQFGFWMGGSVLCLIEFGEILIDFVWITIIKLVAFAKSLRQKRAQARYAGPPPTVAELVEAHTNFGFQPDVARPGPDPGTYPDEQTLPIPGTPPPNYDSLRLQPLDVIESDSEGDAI
T2 sequence (A0A8I3MKE6 1-646): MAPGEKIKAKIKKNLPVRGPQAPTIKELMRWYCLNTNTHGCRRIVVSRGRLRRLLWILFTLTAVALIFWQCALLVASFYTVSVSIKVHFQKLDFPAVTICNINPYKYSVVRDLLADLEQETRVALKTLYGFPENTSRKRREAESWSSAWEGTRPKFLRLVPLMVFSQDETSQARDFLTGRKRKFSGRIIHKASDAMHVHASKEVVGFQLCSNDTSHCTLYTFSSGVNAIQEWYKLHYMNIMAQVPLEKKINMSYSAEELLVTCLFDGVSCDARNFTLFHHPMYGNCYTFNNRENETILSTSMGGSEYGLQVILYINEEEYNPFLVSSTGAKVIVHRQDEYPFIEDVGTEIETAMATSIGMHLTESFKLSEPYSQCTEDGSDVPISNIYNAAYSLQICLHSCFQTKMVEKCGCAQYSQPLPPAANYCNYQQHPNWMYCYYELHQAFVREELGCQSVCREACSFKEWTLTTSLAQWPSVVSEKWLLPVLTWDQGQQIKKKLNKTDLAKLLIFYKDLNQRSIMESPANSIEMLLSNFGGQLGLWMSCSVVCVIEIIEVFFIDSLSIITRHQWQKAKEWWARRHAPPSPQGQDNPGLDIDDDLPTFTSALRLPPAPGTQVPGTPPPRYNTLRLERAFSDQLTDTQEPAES
Protocol: To assess epithelial sodium channel blocker potency the compounds of the present invention involves the determination of lumenal drug inhibition of airway epithelial sodium currents measured under short circuit current (ISC) using airway epithelial monolayers mounted in Ussing chambers. Cells obtained from freshly excised human, or dog airways are seeded onto porous 0.4 micrometer Transwell® Permeable Supports (Corning Inc. Acton, Mass.), cultured at air-liquid interface (ALI) conditions in hormonally defined media, and assayed for sodium transport activity (ISC) while bathed in Krebs Bicarbonate Ringer (KBR) in Ussing chambers. All test drug additions are to the lumenal bath with approximately half-log dose additions (from 1×10^−11 M to 6×10^−5 M), and the cumulative change in ISC (decreases) recorded. All drugs are prepared in dimethyl sulfoxide as stock solutions at a concentration of approximately 1×10^−2 and stored at −20° C. Six preparations are typically run in parallel; one preparation per run incorporates 552-02 as a positive control. Before the start of the concentration-effect relationship propranolol, a non-selective […], was applied to the lumenal bath (10 μM) to inhibit the beta agonist component of the designer multiple ligand (DML). All data from the voltage clamps are collected via a computer face and analyzed off-line.
Concentration-effect relationships for all compounds are considered and analyzed Using GraphPad Prism version 3.00 for Windows, GraphPad Software, San Diego Calif. USA. IC50 values, […], are calculated and compared to the 552-02 potency as a positive control.

T1 sequence (P54833 whole entry): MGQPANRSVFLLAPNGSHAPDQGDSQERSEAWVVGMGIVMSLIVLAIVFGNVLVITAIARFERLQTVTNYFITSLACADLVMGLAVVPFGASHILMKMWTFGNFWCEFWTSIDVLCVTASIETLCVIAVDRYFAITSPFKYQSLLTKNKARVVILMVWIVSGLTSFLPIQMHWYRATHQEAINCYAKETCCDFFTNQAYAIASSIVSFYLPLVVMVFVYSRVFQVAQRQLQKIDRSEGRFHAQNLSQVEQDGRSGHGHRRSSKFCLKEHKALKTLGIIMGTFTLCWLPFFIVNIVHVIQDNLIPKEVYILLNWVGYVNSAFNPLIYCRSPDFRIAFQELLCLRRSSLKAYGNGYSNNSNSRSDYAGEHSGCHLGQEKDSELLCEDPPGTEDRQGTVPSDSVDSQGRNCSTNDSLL

N=C(NCCCCc1ccc(CCCCNC[C@H](O)c2ccc(O)c(NC=O)c2)cc1)NC(=O)c1nc(Cl)c(N)nc1N [Compound 12, N-(5-{2-[4-(4-{4-[N′-(3,5-diamino-6-chloropyrazine-2-carbonyl)guanidino]butyl}phenyl)butylamino]-1-(R)-hydroxyethyl}-2-hydroxyphenyl)formamide]
EC50 (beta-adrenergic receptor): 151 nM
ENaC blocking potency relative to Amiloride ([1]; fold potency versus amiloride): 132 × Amiloride
IC50 ([1]; lumenal addition, propranolol 10 μM applied first): 5.7 nM
melting point: 138 to 140 °C
